Data as given in US8580814B2, “Methods of using (+)-1,4-dihydro-7-[(3S,4S)-3-methoxy-4-(methylamino)-1-pyrrolidinyl]-4- oxo-1-(2-thiazolyl)-1,8-naphthyridine-3-carboxylic acid for treatment of cancer” (priority 2006, dated 2013).
≈ marks a conversion by molar mass, not a printed value. Where “and” joins values, the source holds several entries; their conditions need not be identical. Identical values can stand only once.

Tests used:
HCT-116 cells = assay: Repair of DNA damage (gH2AX foci) in the absence of ATM and ATR; assay type: cell-based; settings: for 6 h with 2 mM caffeine, washout, 16 hours recovery
Method: Compound was then removed and cells were allowed to recover for 16 hours. Cells were analyzed for gH2AX foci before and after drug washout.

refractory solid tumors = assay: Clinical activity in patients with advanced solid tumors; assay type: in vivo, human; design: key to Best Response: partial response (PR); stable disease SD; Partial/Minor Responses (PR/MR); settings: for Iliac node: Baseline 5.5; for RMLL Lung / Rectosigmoid: Baseline 2.5; for RML Lung: Baseline 3.9; for RUL Lung: Baseline 4.7; for Liver met: Baseline 7.4
Method: The administered dose of SNS-595 can be delivered as a single dose such as, for example, an IV push of 10-15 minutes duration (e.g. a single bolus injection) or over time such as, for example, a 24-hour period (e.g., continuous infusion over time or divided bolus doses over time) and is repeated as necessary, for example, until the patient experiences stable disease or regression, or until the patient experiences disease progression or unacceptable toxicity. For example, stable disease for solid tumors generally means that the perpendicular diameter of measurable lesions has not increased by 25% or more from the last measurement. See e.g., Response Evaluation Criteria in Solid Tumors (RECIST) Guidelines, Journal of the National Cancer Institute 92(3): 205-216 (2000). Stable disease or lack thereof is determined by methods known in the art such as evaluation of patient symptoms, physical examination, visualization of the tumor that has been imaged using X-ray, CAT, PET, or MRI scan and other commonly accepted evaluation modalities.
SNS-595 was administered to patients with advanced solid cancers as an IV infusion over 10 minutes on 2 schedules. In the first schedule (A), a weekly dose of SNS-595 was administered for three weeks followed by at least 7 days off (qwk×3). In the second schedule (B), a dose of SNS-595 was administered once every three weeks (q3wk).
In both schedules, the starting dose of SNS-595 was 3 mg/m^2, and doses were escalated by sequential cohorts of 3. The doses were doubled until the first related adverse event at or above Grade 2 or until the first abnormal lab value. The doses were then escalated by a modified Fibonacci schema.
In study A, 21 patients (9 male, 12 female) were treated in 6 cohorts (dose range 3-24 mg/m^2/wk). In study B, 41 (25 male, 16 female) patients were treated in 9 cohorts (dose range 3-75 mg/m^2/wk). The median ages were 61 yrs (Study A) and 59 yrs (Study B), sex 12F/9M (Study A), 16F/25M (Study B), all patients had baseline European Cooperative Oncology Group Performance Status (ECOG PS) 0-2. Patient eligibility included refractory solid tumors and adequate organ function.

DNAPKcs(−/−) (MO59J) = assay: Timing of apoptosis (caspase-3 activation); assay type: cell-based; settings: Cell Line DNAPKcs(−/−); dosed at 30 fold above the EC50 for cytotoxicity
[1] = test system: HL-60 (promyelocytic leukemia); assay: MTT cell viability assay, leukemia cells; assay type: cell-based; settings: Homo sapiens; HL-60, MTT after 72 hours
Method: The following cell lines were used in this assay: HL-60 (promyelocytic leukemia); Jurkat (T cell leukemia); CCRF-CEM (lymphoblastic leukemia); CEM/C2 (camptothecan resistant derivative of CCRF-CEM). Cells were seeded in 96 wells plates at 3000 cells per well and incubated for 16 hours. […] Titrations were diluted 1:100 in media to achieve final compound concentrations. The 96 well plates were aspirated and compound dilutions in media were added ([…]). MTT analysis was carried out after 72 hours of incubation at 37° C. Briefly, […] of MTT solution was added to each well. Cells were incubated at 37° C. for 1-2 hours. […] Plates were read on a spectromax machine with an absorbance measurement at […]. IC50's were calculated (data provided in Table 13) using regression analysis within GraphPad Prism.

[2] = both studies, advanced solid cancers
[3] = initial dosage 3 mg/m^2, q3wk, Lung
[4] = initial dosage 6 mg/m^2, q3wk, Renal Cell
[5] = initial dosage 6 mg/m^2, qwk x3, Renal Cell
[6] = initial dosage 12 mg/m^2, q3wk, Lung
[7] = initial dosage 12 mg/m^2, qwk x3, Leiomyosarcoma
[8] = initial dosage 12 mg/m^2, qwk x3, Melanoma
[9] = initial dosage 15 mg/m^2, qwk x3, Mesothelioma (two patients)
[10] = initial dosage 15 mg/m^2, qwk x3, Nasopharyngeal
[11] = initial dosage 24 mg/m^2, q3wk, Adenocarcinoma (unknown origin)
[12] = initial dosage 24 mg/m^2, qwk x3, Salivary Gland
[13] = initial dosage 36 mg/m^2, q3wk, Colon
[14] = initial dosage 36 mg/m^2, q3wk, Ovarian
[15] = initial dosage 48 mg/m^2, q3wk, Lung
[16] = initial dosage 48 mg/m^2, q3wk, Ovarian (two patients)
[17] = initial dosage 60 mg/m^2, q3wk, Neuroendocrine
[18] = initial dosage 60 mg/m^2, q3wk, Ovarian
[19] = initial dosage 75 mg/m^2, q3wk, Müllerian

## CN[C@H]1CN(c2ccc3c(=O)c(C(=O)O)cn(-c4nccs4)c3n2)C[C@@H]1OC [SNS-595, (+)-1,4-dihydro-7-[(3S,4S)-3-methoxy-4-(methylamino)-1-pyrrolidinyl]-4-oxo-1-(2-thiazolyl)-1,8-naphthyridine-3-carboxylic acid]
HCT-116 cells
  repair of induced DNA damage (gH2AX foci) in the absence of ATM and ATR: readily repaired
Refractory solid tumors; PR patient, Ovarian, C2, Baseline 1.7
  P-aortic node: 1.6 cm
Refractory solid tumors; PR patient, Ovarian, C2, Baseline 2.4
  Aortic node: 2.0 cm
Refractory solid tumors; PR patient, Ovarian, C2
  Iliac node: 5.0 cm
Refractory solid tumors; PR patient, Ovarian, C2, Baseline 467
  CA125: 272 U/mL
Refractory solid tumors; PR patient, Ovarian, C4, Baseline 1.7
  P-aortic node: 1.5 cm
Refractory solid tumors; PR patient, Ovarian, C4, Baseline 2.4
  Aortic node: 2.2 cm
Refractory solid tumors; PR patient, Ovarian, C4
  Iliac node: 4.7 cm
Refractory solid tumors; PR patient, Ovarian, C4, Baseline 467
  CA125: 176 U/mL
Refractory solid tumors; PR patient, Ovarian, C6, Baseline 1.7
  P-aortic node: 1.3 cm
Refractory solid tumors; PR patient, Ovarian, C6, Baseline 2.4
  Aortic node: 2.0 cm
Refractory solid tumors; PR patient, Ovarian, C6
  Iliac node: 3.9 cm
Refractory solid tumors; PR patient, Ovarian, C6, Baseline 467
  CA125: 120 U/mL
Refractory solid tumors; SD (MR) patient, Müllerian, C2
  RMLL Lung: 2.5 cm
  RML Lung: 3.9 cm
  RUL Lung: 4.5 cm
Refractory solid tumors; SD (MR) patient, Müllerian, C4
  RMLL Lung: 2.5 cm
  RML Lung: 3.7 cm
  RUL Lung: 4.5 cm
Refractory solid tumors; SD (MR) patient, Müllerian, C6
  RMLL Lung: 2.6 cm
  RML Lung: 2.4 cm
  RUL Lung: 5.0 cm
Refractory solid tumors; SD (MR) patient, Nasopharyngeal, C2, Baseline 1.1
  Left upper lobe nodule: 1.0 cm
Refractory solid tumors; SD (MR) patient, Nasopharyngeal, C2, Baseline 1.5
  Rt upper lobe nodule 2: 1.3 cm
Refractory solid tumors; SD (MR) patient, Nasopharyngeal, C2, Baseline 1.6
  Lingular nodule: 1.5
Refractory solid tumors; SD (MR) patient, Nasopharyngeal, C2, Baseline 2.3
  Rt upper lobe nodule 1: 1.5 cm
Refractory solid tumors; SD (MR) patient, Ovarian (first), C2, Baseline 1.7
  Aortic node: 1.5 cm
Refractory solid tumors; SD (MR) patient, Ovarian (first), C2, Baseline 1.8
  P-aortic node: 1.1 cm
Refractory solid tumors; SD (MR) patient, Ovarian (first), C2
  Liver met: 6.9 cm
Refractory solid tumors; SD (MR) patient, Ovarian (first), C2, Baseline 567
  CA125: 811 U/mL
Refractory solid tumors; SD (MR) patient, Ovarian (first), C4, Baseline 1.7
  Aortic node: 1.2 cm
Refractory solid tumors; SD (MR) patient, Ovarian (first), C4, Baseline 1.8
  P-aortic node: 1.1 cm
Refractory solid tumors; SD (MR) patient, Ovarian (first), C4
  Liver met: 5.7 cm
Refractory solid tumors; SD (MR) patient, Ovarian (first), C4, Baseline 567
  CA125: 419 U/mL
Refractory solid tumors; SD (MR) patient, Ovarian (first), C6, Baseline 1.7
  Aortic node: 1.8 cm
Refractory solid tumors; SD (MR) patient, Ovarian (first), C6, Baseline 1.8
  P-aortic node: 1.2 cm
Refractory solid tumors; SD (MR) patient, Ovarian (first), C6
  Liver met: 5.7 cm
Refractory solid tumors; SD (MR) patient, Ovarian (first), C6, Baseline 567
  CA125: 274 U/mL
Refractory solid tumors; SD (MR) patient, Ovarian (second)
  3 mets: 3 mets unchanged
Refractory solid tumors; SD (MR) patient, Ovarian (second), C2
  Rectosigmoid: 0.0 cm
Refractory solid tumors; SD (MR) patient, Ovarian (second), C2, Baseline 50
  CA125: 18 U/mL
Refractory solid tumors; SD (MR) patient, Ovarian (second), C4
  Rectosigmoid: 0.0 cm
Refractory solid tumors; SD (MR) patient, Ovarian (second), C4, Baseline 50
  CA125: 16 U/mL
Refractory solid tumors; SD (MR) patient, Ovarian (second), C6
  Rectosigmoid: 0.0 cm
Refractory solid tumors; SD (MR) patient, Ovarian (second), C6, Baseline 50
  CA125: 15 U/mL
Refractory solid tumors; Table 11, Müllerian
  Best Response: SD (MR)
Refractory solid tumors; Table 11, Nasopharyngeal
  Best Response: SD (MR)
Refractory solid tumors; Table 11, Ovarian (three patients)
  Best Response: SD (MR) and PR
Refractory solid tumors; [2]
  patients that achieved partial responses: two patients
  patients that achieved stable disease for over sixteen weeks: seventeen patients
Refractory solid tumors; [3]
  Best Response: SD
  Weeks on Therapy: 18 Weeks
Refractory solid tumors; [4]
  Best Response: SD
  Weeks on Therapy: 18 Weeks
Refractory solid tumors; [5]
  Best Response: SD
  Weeks on Therapy: 16 Weeks
Refractory solid tumors; [6]
  Best Response: SD
  Weeks on Therapy: 53 Weeks
Refractory solid tumors; [7]
  Best Response: SD
  Weeks on Therapy: 16 Weeks
Refractory solid tumors; [8]
  Best Response: SD
  Weeks on Therapy: 16 Weeks
Refractory solid tumors; [9]
  Best Response: PR and SD
  Weeks on Therapy: 28 Weeks and 18 Weeks
Refractory solid tumors; [10]
  Best Response: SD
  Weeks on Therapy: 16 Weeks
Refractory solid tumors; [11]
  Best Response: SD
  Weeks on Therapy: 18 Weeks
Refractory solid tumors; [12]
  Best Response: SD
  Weeks on Therapy: 24 Weeks
Refractory solid tumors; [13]
  Best Response: SD
  Weeks on Therapy: 33 Weeks
Refractory solid tumors; [14]
  Best Response: SD
  Weeks on Therapy: 18 Weeks
Refractory solid tumors; [15]
  Best Response: SD
  Weeks on Therapy: 46 Weeks
Refractory solid tumors; [16]
  Best Response: PR and SD
  Weeks on Therapy: 24 Weeks and 30 Weeks
Refractory solid tumors; [17]
  Best Response: SD
  Weeks on Therapy: 58 Weeks
Refractory solid tumors; [18]
  Best Response: SD
  Weeks on Therapy: 33 Weeks
Refractory solid tumors; [19]
  Best Response: SD
  Weeks on Therapy: 46 Weeks
Refractory solid tumors; study A (qwk×3)
  stable disease SD, range: 16-24 wks
Refractory solid tumors; study A (qwk×3), 21 patients
  patients that achieved partial response (PR): one patient
  patients that achieved stable disease SD: six
Refractory solid tumors; study B (q3wk), 41 patients
  patients with PR as best response: one PR
  patients with SD as best response: 11
DNAPKcs(−/−) (MO59J)
  Timing of apoptosis: fraction of cell cycle to achieve 50% maximal caspase-3 activation: 0.25
[1]
  IC50: 0.053 µg/mL (≈ 0.132 µM)
